What was measured:
soybean = test: Test B pre/postemergence soybean; format: in vivo, Glycine max
Procedure, shortened: (§1)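 Response is a visual 0-to-10 score relative to untreated plants, where 0 means no effect and 10 means complete control, taken twelve to sixteen days after application. Treatments went onto soil at planting and onto foliage of 1- to 4-leaf plants, using a surfactant-containing non-phytotoxic solvent.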

purple nutsedge = test: Test B pre/postemergence purple nutsedge; format: in vivo, Cyperus rotundus
Procedure, shortened: as §1

crabgrass = test: Test B pre/postemergence crabgrass; format: in vivo, Digitaria sanguinalis
Procedure, shortened: as §1

blackgrass = test: Test B pre/postemergence blackgrass; format: in vivo, Alopecurus myosuroides
Procedure, shortened: as §1

rice = test: Test B flood test rice; format: in vivo, Oryza sativa
Procedure, shortened: (§2)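 Flood test on plants grown to the 2-leaf stage; treated plants kept in greenhouse twelve to sixteen days, then visually rated against controls on a 0 (no effect) to 10 (complete control) scale.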

surinam grass = test: Test B pre/postemergence surinam grass; format: in vivo, Brachiaria decumbens
Procedure, shortened: as §1

corn = test: Test B pre/postemergence corn; format: in vivo, Zea mays
Procedure, shortened: as §1

bamyardgrass = test: Test B flood test barnyardgrass; format: in vivo, Echinochloa crus-galli
Procedure, shortened: as §2

smallflower flatsedge = test: Test B flood test smallflower flatsedge; format: in vivo, Cyperus difformis
Procedure, shortened: as §2

morningglory = test: Test B pre/postemergence morningglory; format: in vivo, Ipomoea hederacea
Procedure, shortened: as §1

wheat = test: Test B pre/postemergence wheat; format: in vivo, Triticum aestivum
Procedure, shortened: as §1

sugar beet = test: Test B pre/postemergence sugar beet; format: in vivo, Beta vulgaris
Procedure, shortened: as §1

velvetleaf = test: Test B pre/postemergence velvetleaf; format: in vivo, Abutilon theophrasti
Procedure, shortened: as §1

pigweed = test: Test B pre/postemergence pigweed; format: in vivo, Amaranthus retroflexus
Procedure, shortened: as §1

duck salad = test: Test B flood test duck salad; format: in vivo, Heteranthera limosa
Procedure, shortened: as §2

bedstraw = test: Test B pre/postemergence bedstraw; format: in vivo, Galium aparine; conditions: Preemergence
Procedure, shortened: as §1

wild oat = test: Test B pre/postemergence wild oat; format: in vivo, Avena fatua
Procedure, shortened: as §1

cocklebur = test: Test B pre/postemergence cocklebur; format: in vivo, Xanthium strumarium
Procedure, shortened: as §1

rape = test: Test B pre/postemergence rape; format: in vivo, Brassica napus
Procedure, shortened: as §1

giant foxtail = test: Test B pre/postemergence giant foxtail; format: in vivo, Setaria faberii
Procedure, shortened: as §1

[1] = Postemergence, Rate 62 g/ha, scale 0 to 10, 0 is no effect, 10 is complete control
[2] = Postemergence, Rate 500 g/ha, scale 0 (no effect) to 10 (complete control)
[3] = Rate 62 g/ha, Preemergence, scale 0 to 10
[4] = Rate 125 g/ha, Preemergence, scale 0 to 10 (0 no effect, 10 complete control)
[5] = Rate 250 g/ha, Postemergence, scale 0 to 10, 0 is no effect, 10 is complete control
[6] = Rate 500 g/ha, Preemergence, scale 0 to 10 (0 no effect, 10 complete control)
[7] = Postemergence, Rate 125 g/ha, scale of 0 to 10 where 0 is no effect and 10 is complete control
[8] = Preemergence, Rate 250 g/ha, scale 0 (no effect) to 10 (complete control)
[9] = Pre-emergence, Rate 62 g/ha, scale 0 to 10, 0 is no effect, 10 is complete control
[10] = Rate 125 g/ha, Pre-emergence section (flood test species), scale 0 to 10, 0 no effect, 10 complete control
[11] = Rate 250 g/ha, Pre-emergence (flood test species), scale 0 to 10, 0 is no effect, 10 is complete control
[12] = Rate 500 g/ha, Pre-emergence section of Table B, 0 to 10 scale (0 no effect, 10 complete control)

Compound: CC(C)N(C(=O)n1oc(=O)n(CC2=NOCCO2)c1=O)c1ccc(F)cc1 [Compound 765]
- Plant response rating, Soybean (soybean; [1]): 2
- Soybean plant response rating (soybean; [2]): 5
- Soybean plant response rating (soybean; [3]): 0
- Soybean plant response rating (soybean; [4]): 0
- Soybean plant response rating (soybean; [5]): 5
- Soybean plant response rating (soybean; [6]): 0
- Plant response rating, Nutsedge (purple nutsedge; [1]): 0
- Nutsedge plant response rating (purple nutsedge; [7]): 0
- Nutsedge plant response rating (purple nutsedge; [2]): 3
- Nutsedge plant response rating (purple nutsedge; [3]): 0
- Nutsedge plant response rating (purple nutsedge; [5]): 0
- Nutsedge plant response rating (purple nutsedge; [6]): 0
- Plant response rating, Crabgrass (crabgrass; [1]): 3
- Crabgrass plant response rating (crabgrass; [7]): 5
- Crabgrass plant response rating (crabgrass; [2]): 9
- Crabgrass plant response rating (crabgrass; [8]): 10
- Crabgrass plant response rating (crabgrass; [3]): 9
- Crabgrass plant response rating (crabgrass; [4]): 10
- Crabgrass plant response rating (crabgrass; [5]): 7
- Crabgrass plant response rating (crabgrass; [6]): 10
- Plant response rating, Blackgrass (blackgrass; [1]): 3
- Blackgrass plant response rating (blackgrass; [7]): 5
- Blackgrass plant response rating (blackgrass; [2]): 7
- Blackgrass plant response rating (blackgrass; [8]): 8
- Blackgrass plant response rating (blackgrass; [3]): 7
- Blackgrass plant response rating (blackgrass; [5]): 7
- Blackgrass plant response rating (blackgrass; [6]): 9
- Rice plant response rating (rice; [9]): 0
- Rice plant response rating (rice; [10]): 0
- Rice plant response rating (rice; [11]): 0
- Rice plant response rating (rice; [12]): 0
- Plant response rating, B. signalgrass (surinam grass; [1]): 3
- B. signalgrass plant response rating (surinam grass; [7]): 7
- B. signalgrass plant response rating (surinam grass; Preemergence, Rate 62 g/ha, scale of 0 to 10 where 0 is no effect and 10 is complete control): 5
- B. signalgrass plant response rating (surinam grass; [8]): 7
- B. signalgrass plant response rating (surinam grass; [5]): 7
- B. signalgrass plant response rating (surinam grass; Rate 500 g/ha, Postemergence, scale 0 to 10, 0 is no effect, 10 is complete control): 8
- B. signalgrass plant response rating (surinam grass; [6]): 7
- Plant response rating, Corn (corn; [1]): 0
- Corn plant response rating (corn; [7]): 0
- Corn plant response rating (corn; [2]): 3
- Corn plant response rating (corn; [8]): 0
- Corn plant response rating (corn; [3]): 0
- Corn plant response rating (corn; [4]): 0
- Corn plant response rating (corn; [5]): 0
- Corn plant response rating (corn; [6]): 2
- Barnyardgrass plant response rating (bamyardgrass; [9]): 0
- Barnyardgrass plant response rating (bamyardgrass; [10]): 0
- Barnyardgrass plant response rating (bamyardgrass; [11]): 0
- Barnyardgrass plant response rating (bamyardgrass; [12]): 0
- S. Flatsedge plant response rating (smallflower flatsedge; [9]): 0
- S. Flatsedge plant response rating (smallflower flatsedge; [10]): 0
- S. Flatsedge plant response rating (smallflower flatsedge; [11]): 0
- S. Flatsedge plant response rating (smallflower flatsedge; [12]): 0
- Plant response rating, Morningglory (morningglory; [1]): 5
- Morningglory plant response rating (morningglory; [7]): 6
- Morningglory plant response rating (morningglory; [2]): 8
- Morningglory plant response rating (morningglory; [3]): 0
- Morningglory plant response rating (morningglory; [4]): 0
- Morningglory plant response rating (morningglory; [5]): 6
- Morningglory plant response rating (morningglory; [6]): 0
- Plant response rating, Wheat (wheat; [1]): 0
- Wheat plant response rating (wheat; [2]): 5
- Wheat plant response rating (wheat; [3]): 3
- Wheat plant response rating (wheat; [5]): 3
- Wheat plant response rating (wheat; [6]): 8
- Plant response rating, Sugarbeets (sugar beet; [1]): 0
- Sugarbeets plant response rating (sugar beet; [2]): 4
- Sugarbeets plant response rating (sugar beet; [3]): 6
- Sugarbeets plant response rating (sugar beet; [5]): 0
- Sugarbeets plant response rating (sugar beet; [6]): 9
- Plant response rating, Velvetleaf (velvetleaf; [1]): 6
- Velvetleaf plant response rating (velvetleaf; [2]): 7
- Velvetleaf plant response rating (velvetleaf; [3]): 0
- Velvetleaf plant response rating (velvetleaf; [4]): 4
- Velvetleaf plant response rating (velvetleaf; [5]): 7
- Velvetleaf plant response rating (velvetleaf; [6]): 7
- Plant response rating, Redroot pigweed (pigweed; [1]): 6
- Redroot pigweed plant response rating (pigweed; [7]): 7
- Redroot pigweed plant response rating (pigweed; [2]): 8
- Redroot pigweed plant response rating (pigweed; [3]): 8
- Redroot pigweed plant response rating (pigweed; [6]): 10
- Ducksalad plant response rating (duck salad; [9]): 0
- Ducksalad plant response rating (duck salad; [10]): 0
- Ducksalad plant response rating (duck salad; [11]): 0
- Ducksalad plant response rating (duck salad; [12]): 0
- Bedstraw plant response rating (bedstraw; Rate 250 g/ha, scale 0 (no effect) to 10 (complete control)): 2
- Bedstraw plant response rating (bedstraw; Rate 62 g/ha, scale 0 to 10): 0
- Bedstraw plant response rating (bedstraw; Rate 500 g/ha, scale 0 to 10 (0 no effect, 10 complete control)): 8
- Plant response rating, Wild oats (wild oat; [1]): 0
- Wild oats plant response rating (wild oat; [2]): 2
- Wild oats plant response rating (wild oat; [3]): 4
- Wild oats plant response rating (wild oat; [5]): 0
- Wild oats plant response rating (wild oat; [6]): 9
- Plant response rating, Cocklebur (cocklebur; [1]): 0
- Cocklebur plant response rating (cocklebur; [7]): 0
- Cocklebur plant response rating (cocklebur; [2]): 3
- Cocklebur plant response rating (cocklebur; [8]): 0
- Cocklebur plant response rating (cocklebur; [3]): 0
- Cocklebur plant response rating (cocklebur; [4]): 0
- Cocklebur plant response rating (cocklebur; [5]): 0
- Cocklebur plant response rating (cocklebur; [6]): 0
- Plant response rating, Rape (rape; [1]): 0
- Rape plant response rating (rape; [7]): 0
- Rape plant response rating (rape; [2]): 1
- Rape plant response rating (rape; [3]): 2
- Rape plant response rating (rape; [5]): 0
- Rape plant response rating (rape; [6]): 8
- Plant response rating, Giant foxtail (giant foxtail; [1]): 5
- Giant foxtail plant response rating (giant foxtail; [7]): 8
- Giant foxtail plant response rating (giant foxtail; [2]): 9
- Giant foxtail plant response rating (giant foxtail; [8]): 10
- Giant foxtail plant response rating (giant foxtail; [3]): 9
- Giant foxtail plant response rating (giant foxtail; [4]): 10
- Giant foxtail plant response rating (giant foxtail; [5]): 9
- Giant foxtail plant response rating (giant foxtail; [6]): 10

From patent US6737383B1, “Herbicidal oxadiazolidines” (priority 1999, dated 2004)
